Common to all, as to format: in vivo, mouse
Assay [1] has as its system Hsd3b6. Nature of the assay: Measurement of meibomian gland Hsd3b6 enzymatic activity (steroid synthesis activity) after eye drop instillation. As to conditions: 1.5 year old WT mice, 5% eye drop (5 μL/eye, 6 times/day, only right eye), 2 weeks, vs Vehicle (phosphate buffered saline). How it is done: The meibomian gland Hsd3b6 enzymatic activity in mice was measured in accordance with the following protocol.
Hank's balanced salt solution (HBSS) was bubbled with […] for 1 hour or more, and dispensed in 2 mL tubes at 200 μL each. The lid was closed while filled with […]. HBSS was warmed with a 37° C. water bath. A reaction incubator was warmed to 37° C., and a micro tube mixer was installed therein.
The main power of a flow liquid scintillation counter (Perkin Elmer, Radiomatic 625TR) was turned on, and the main power of HPLC (Waters, 2795 Separations Module) was turned on to perform setup. Mobile phase A was replaced with water, and mobile phase B was replaced with acetonitrile. Once a column (Kanto Chemical, LiChroCART 250-4, LiChrosphere 100RP-18, particle size: 5 μm, 4 mm I.D.×250 mm) was installed, 40% acetonitrile (ACN) (A: 60%, B: 40%) was flown at 0.7 mL/min. The column oven temperature at this time was set to 40° C.
^3H-DHEA was added to 1 mL of 40% ACN contained in a 2 mL tube, and the mixture was tapped. A microtube was set on an HPLC holder, and single administration was selected. The peak of contaminant produced after 22 minutes was not collected. […]

Assay [2] concerns meibomian gland basal cells. In words: Cell proliferation assay through BrdU incorporation staining after eye drop instillation. Conditions: 1.5 year old WT mice, 5% eye drop (5 μL/eye, 6 times/day, only right eye), 2 weeks, vs Vehicle (phosphate buffered saline). The protocol:
[table] BrdU (100 mg/kg body weight, Sigma-Aldrich) was intraperitoneally injected 30 minutes prior to harvesting eyelid tissue from a mouse. An eyelid comprising meibomian glands was immobilized with 4% PFA and embedded in paraffin. Antigens were activated by pressurizing a 5 μm thick segment for 2.5 minutes in 10 mM sodium citrate buffer (pH 6.0). After incubating the segment for 24 hours at 4° C. by using an anti-BrdU antibody (1:1000 dilution; Rockland Inc.), the immune response was made visible with 3,3′-diaminobenzidine (DAB) using secondary antibody Envision+ System—HRP Labelled Polymer Anti-Rabbit (Dako). For each tissue segment, BrdU positive cells in the basal cell layer of a meibomian gland were counted on a digital microscope picture captured at 20× magnification. The length of the outer circumference of a meibomian gland acinus was measured with ImageJ software, and the total BrdU positive cell count was normalized with the length of the outer circumference. The BrdU positive cells were counted by using 16 segments per individual.

In assay [3] the test system is meibomian gland tissue. In words: Lipid stained tissue observation (meibomian gland volume evaluation), whole mount Herxheimer's staining. As to conditions: 1.75 year old WT mice, 5% eye drop (5 μL/eye, 4 times/day, only right eye), 3 months, vs Vehicle (phosphate buffered saline). The protocol: Meibomian gland tissue in mice was stained in accordance with the following protocol.
As a preparation method of 100 mL of staining solution, a bottle of stock solution prepared by dissolving Sudan IV to saturate in 100% ethanol was left standing in advance, and 70 mL of as much of the supernatant, 20 mL of 10% NaOH, and 10 mL of ultrapure water were mixed, tumbled for 5 minutes, and centrifuged to allow powder to precipitate. The supernatant was filtered with a 0.45 μm filter and used as a staining solution.
The cervical vertebrae of mice was dislocated, and skin of the head including meibomian glands was sampled. The sample was immersed in 4% paraformaldehyde while keeping the sample flat with a drawing pin, and immobilized using a rotator at 4° C. for 24 hours. The periphery of meibomian glands was trimmed. The meibomian glands were immersed in 50% ethanol by using a rotator at room temperature for 10 minutes, then immersed for 20 minutes in 70% ethanol, and immersed in a staining solution using a rotator at room temperature for 24 hours in a falcon tube. The meibomian glands were then immersed for 10 minutes in 70% ethanol, and washing was repeated several times to confirm that the meibomian glands were stained well. The meibomian glands were immersed for 24 hours in amino alcohol in glycerin prepared by mixing 3.75 mL of 80% amino alcohol with 8.25 mL glycerin. […]

The subject of assay [4] is lipid components in meibomian glands. In words: Lipid analysis of meibomian glands after eye drop instillation (APCI). As to conditions: 1.75 year old WT mice, eye drop instillation 3 months as Example 3, compared to Vehicle (phosphate buffered saline). The protocol:
(1) The Eye Drop Instillation Experiment is Performed in the Same Manner as Example 3. Meibomian glands are harvested from an eyelid of a euthanized mouse. Two meibomian glands harvested from one of the eyes of each animal are each placed in a glass vial containing 1 mL of chloroform:methanol=2:1 (v/v) solvent mixture for lipid extraction, and lipids are extracted. The extract is relocated into a new vial. The extract can be stored for several months at −20° C. or lower by evaporating the solution under nitrogen. The extract is then dissolved in a suitable solvent, and lipid composition is analyzed by APCI.

On to Nicotinamide mononucleotide [NMN], for which, in assay [1], the “Hsd3b6 enzymatic activity in a meibomian gland” value is on record as “increased significantly”. Moreover, the “BrdU positive cell count in meibomian gland basal cells” value in assay [2] is “increased significantly”. Further, in assay [3], the meibomian gland volume result is “significant increase”. In assay [4], the “Lipid components in a meibomian gland” value is “normalized”.

With `NC(=O)c1ccc[n+]([C@@H]2O[C@H](CO)[C@@H](O)[C@H]2O)c1` [NR, Nicotinamide riboside], the “BrdU positive cell count in meibomian gland basal cells” value in assay [2] is “increased significantly”. Also, the meibomian gland volume result in assay [3] was “significant increase”. The “Lipid components in a meibomian gland” value in assay [4] is “normalized”.

The values are drawn from patent US20220370484A1, “NOVEL USE OF NICOTINAMIDE MONONUCLEOTIDE (NMN) AND NICOTINAMIDE RIBOSIDE (NR)” (Senju Pharmaceutical Co., Ltd., priority 2019, published 2022).
